We go through 16 compounds from US20230295182A1, “SPIRO DERIVATIVES OF ALPHA-D-GALACTOPYRANOSIDES” (Idorsia Pharmaceuticals Ltd, priority 2020, published 2023).

For one experiment, the target named is human Gal-3 (hGal-3) (Homo sapiens (Human), UniProt P17931). In words: Competitive binding assay: biotinylated hGal-3 to microplate-adsorbed asialofetuin (ASF). The settings on record: Activity on hGal-3; binding to ASF-coated plates, 3 hours at 4° C.; mean values. How it is done: Evaluation of Compound Inhibitory Activity (IC50)
Sequence of human Gal-3 (hGal-3) (P17931 whole entry): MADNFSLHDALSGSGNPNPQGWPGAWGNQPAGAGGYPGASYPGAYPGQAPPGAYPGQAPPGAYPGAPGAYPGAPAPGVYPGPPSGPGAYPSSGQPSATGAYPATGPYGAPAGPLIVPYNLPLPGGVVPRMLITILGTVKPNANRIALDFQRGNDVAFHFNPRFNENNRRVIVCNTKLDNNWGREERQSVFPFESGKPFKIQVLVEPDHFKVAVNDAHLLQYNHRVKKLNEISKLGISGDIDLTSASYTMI
The inhibitory activity of compounds is determined in competitive binding assays. This spectrophotometric assay measures the binding of biotinylated human Gal-3 (hGal-3) or human Gal-1 (hGal-1), respectively, to a microplate-adsorbed glycoprotein, asialofetuin (ASF) (Proc Natl Acad Sci USA. 2013 Mar. 26; 110(13):5052-7.). Alternatively, and preferably, a human Gal-1 version in which all six cysteines are substituted by serines may be used.
Briefly, compounds are serially diluted in DMSO (working dilutions). ASF-coated 384 well plates are supplemented with 22.8 μL/well of biotinylated hGal-3 or hGal-1 in assay buffer (i.e. 300-1000 ng/mL biotinylated hGal-3 or hGal-1) to which 1.2 µL of compound working dilutions are added and mixed.
Plates are incubated for 3 hours at 4° C., then washed with cold assay buffer (3×50 uL), incubated for 1 hour with 25 μL/well of a streptavidin-peroxidase solution (diluted in assay buffer to 80 ng/mL) at 4° C., followed by further washing steps with assay buffer (3×50 uL). Finally, 25 µL/well of ABTS substrate is added.
The calculated IC50 values may fluctuate depending on the daily assay performance. Fluctuations of this kind are known to those skilled in the art. IC50 values from several measurements are given as mean values.

The next experiment addresses human Gal-1 (hGal-1) (Homo sapiens, UniProt P09382). In words: Competitive binding assay: biotinylated hGal-1 to microplate-adsorbed asialofetuin (ASF). The settings on record: Activities on hGal-1; binding to ASF-coated plates, 3 hours at 4° C.; mean values; read-out: Gal-1 IC50. How it is done:
Evaluation of Compound Inhibitory Activity (IC50) The inhibitory activity of compounds is determined in competitive binding assays. […] Alternatively, and preferably, a human Gal-1 version in which all six cysteines are substituted by serines may be used. Briefly, compounds are serially diluted in DMSO (working dilutions). […] Plates are incubated for 3 hours at 4° C., then washed with cold assay buffer (3×50 uL), incubated for 1 hour with 25 μL/well of a streptavidin-peroxidase solution (diluted in assay buffer to 80 ng/mL) at 4° C., followed by further washing steps with assay buffer (3×50 uL). Finally, 25 µL/well of ABTS substrate is added. […] The calculated IC50 values may fluctuate depending on the daily assay performance. Fluctuations of this kind are known to those skilled in the art. IC50 values from several measurements are given as mean values.

Sequence of human Gal-1 (hGal-1) (P09382 2-135 limits assumed): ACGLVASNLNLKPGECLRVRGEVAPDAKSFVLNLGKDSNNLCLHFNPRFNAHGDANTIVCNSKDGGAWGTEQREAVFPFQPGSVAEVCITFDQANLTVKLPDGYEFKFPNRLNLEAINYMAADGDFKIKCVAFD

Regarding `CO[C@@H]1[C@@H](n2cc(-c3cc(F)c(F)c(F)c3)nn2)[C@@H](O)[C@@H](CO)O[C@@H]1CC1=NOC2(CCC(C(C)C)CC2)C1` (stereo partly drawn) [Example 1.25, (2R,3R,4S,5R,6R)-2-(hydroxymethyl)-6-((8-isopropyl-1-oxa-2-azaspiro[4.5]dec-2-en-3-yl)methyl)-5-methoxy-4-(4-(3,4,5-trifluorophenyl)-1H-1,2,3-triazol-1-yl)tetrahydro-2H-pyran-3-ol], the values for the IC50 at human Gal-3 (hGal-3) and on human Gal-1 (hGal-1) were 1.3 µM and 11.1 µM, respectively.
For `CO[C@@H]1[C@@H](n2cc(-c3ccc(C)c(F)c3F)nn2)[C@@H](O)[C@@H](CO)O[C@@H]1CC1=NOC2(CCC(F)(F)CC2)C1` [Example 1.26, (2R,3R,4S,5R,6R)-6-((8,8-difluoro-1-oxa-2-azaspiro[4.5]dec-2-en-3-yl)methyl)-4-(4-(2,3-difluoro-4-methylphenyl)-1H-1,2,3-triazol-1-yl)-2-(hydroxymethyl)-5-methoxytetrahydro-2H-pyran-3-ol], in that order: 0.11 µM and 4 µM.
For `CO[C@@H]1[C@@H](n2cc(-c3cc(F)c(F)c(F)c3)nn2)[C@@H](O)[C@@H](CO)O[C@@H]1CC1=NO[C@]2(CC[C@H](C(C)C)CC2)C1` [Example 1.27, (2R,3R,4S,5R,6R)-2-(hydroxymethyl)-6-(((5r,8R)-8-isopropyl-1-oxa-2-azaspiro[4.5]dec-2-en-3-yl)methyl)-5-methoxy-4-(4-(3,4,5-trifluorophenyl)-1H-1,2,3-triazol-1-yl)tetrahydro-2H-pyran-3-ol], in that order: 1.1 µM and 18.8 µM.
`CO[C@@H]1[C@@H](n2cc(-c3cc(F)c(F)c(F)c3)nn2)[C@@H](O)[C@@H](CO)O[C@@H]1CC1=NO[C@]2(CC[C@@H](C(C)C)CC2)C1` [Example 1.28, (2R,3R,4S,5R,6R)-2-(hydroxymethyl)-6-(((5s,8S)-8-isopropyl-1-oxa-2-azaspiro[4.5]dec-2-en-3-yl)methyl)-5-methoxy-4-(4-(3,4,5-trifluorophenyl)-1H-1,2,3-triazol-1-yl)tetrahydro-2H-pyran-3-ol]: the values for the IC50 on human Gal-3 (hGal-3) and on human Gal-1 (hGal-1) were 2 µM and 6.9 µM, respectively.
Taken in the same sequence, the figures for `CO[C@@H]1[C@@H](n2cc(-c3cc(F)c(F)c(F)c3)nn2)[C@@H](O)[C@@H](CO)O[C@@H]1CC1=NOC2(CCC(C)(C)CC2)C1` [Example 1.29, (2R,3R,4S,5R,6R)-6-((8,8-dimethyl-1-oxa-2-azaspiro[4.5]dec-2-en-3-yl)methyl)-2-(hydroxymethyl)-5-methoxy-4-(4-(3,4,5-trifluorophenyl)-1H-1,2,3-triazol-1-yl)tetrahydro-2H-pyran-3-ol] were 0.44 µM and 2.2 µM.
As for `CO[C@@H]1[C@@H](n2cc(-c3cc(F)c(F)c(Cl)c3)nn2)[C@@H](O)[C@@H](CO)O[C@@H]1CC1=NOC2(CCCCC2)C1` [Example 1.31, (2R,3R,4S,5R,6R)-6-((1-oxa-2-azaspiro[4.5]dec-2-en-3-yl)methyl)-4-(4-(3-chloro-4,5-difluorophenyl)-1H-1,2,3-triazol-1-yl)-2-(hydroxymethyl)-5-methoxytetrahydro-2H-pyran-3-ol], the 50% inhibitory concentration (IC50) amounted to 0.26 µM at human Gal-3 (hGal-3) and 0.97 µM on human Gal-1 (hGal-1).
As for `CO[C@@H]1[C@@H](n2cc(-c3cc(F)c(F)c(F)c3)nn2)[C@@H](O)[C@@H](CO)O[C@@H]1CC1=NOC2(CCC(C)(C)C2)C1` (stereo partly drawn) [Example 1.32, (2R,3R,4S,5R,6R)-6-((7,7-dimethyl-1-oxa-2-azaspiro[4.4]non-2-en-3yl)methyl)-2-(hydroxymethyl)-5-methoxy-4-(4-(3,4,5-trifluorophenyl)-1H-1,2,3-triazol-1-yl)tetrahydro-2H-pyran-3-ol], the IC50 at human Gal-3 (hGal-3) is 0.34 µM; at human Gal-1 (hGal-1) it was 3.4 µM.
Taken in the same sequence, the figures for `CO[C@@H]1[C@@H](n2cc(-c3cc(F)c(F)c(F)c3)nn2)[C@@H](O)[C@@H](CO)O[C@@H]1CC1=NO[C@]2(CC[C@H](C)CC2)C1` [Example 1.33, (2R,3R,4S,5R,6R)-2-(hydroxymethyl)-5-methoxy-6-(((5r,8R)-8-methyl-1-oxa-2-azaspiro[4.5]dec-2-en-3-yl)methyl)-4-(4-(3,4,5-trifluorophenyl)-1H-1,2,3-triazol-1-yl)tetrahydro-2H-pyran-3-ol] were 0.33 µM and 3.7 µM.
For `CO[C@@H]1[C@@H](n2cc(-c3cc(F)c(F)c(F)c3)nn2)[C@@H](O)[C@@H](CO)O[C@@H]1CC1=NO[C@]2(CC[C@@H](C)CC2)C1` [Example 1.34, (2R,3R,4S,5R,6R)-2-(hydroxymethyl)-5-methoxy-6-(((5s,8S)-8-methyl-1-oxa-2-azaspiro[4.5]dec-2-en-3-yl)methyl)-4-(4-(3,4,5-trifluorophenyl)-1H-1,2,3-triazol-1-yl)tetrahydro-2H-pyran-3-ol], in that order: 0.52 µM and 2.5 µM.
On to `CO[C@@H]1[C@@H](n2cc(-c3ccc(F)c(F)c3F)nn2)[C@@H](O)[C@@H](CO)O[C@@H]1CC1=NOC2(CCOCC2)C1` [Example 1.35, (2R,3R,4S,5R,6R)-6-((1,8-dioxa-2-azaspiro[4.5]dec-2-en-3-yl)methyl)-2-(hydroxymethyl)-5-methoxy-4-(4-(2,3,4-trifluorophenyl)-1H-1,2,3-triazol-1-yl)tetrahydro-2H-pyran-3-ol], for which the half-maximal inhibitory concentration (IC50) on human Gal-3 (hGal-3) came out at 0.11 µM; on human Gal-1 (hGal-1), 1.4 µM.
Taken in the same sequence, the figures for `CO[C@@H]1[C@@H](n2cc(-c3ccc(C)c(F)c3F)nn2)[C@@H](O)[C@@H](CO)O[C@@H]1CC1=NOC2(CCOCC2)C1` [Example 1.36, (2R,3R,4S,5R,6R)-6-((1,8-dioxa-2-azaspiro[4.5]dec-2-en-3-yl)methyl)-4-(4-(2,3-difluoro-4-methylphenyl)-1H-1,2,3-triazol-1-yl)-2-(hydroxymethyl)-5-methoxytetrahydro-2H-pyran-3-ol] were 0.064 µM and 3.8 µM.
As to `CO[C@@H]1[C@@H](n2cc(-c3ccc(Cl)c(F)c3F)nn2)[C@@H](O)[C@@H](CO)O[C@@H]1CC1=NOC2(CCOCC2)C1` [Example 1.37, (2R,3R,4S,5R,6R)-6-((1,8-dioxa-2-azaspiro[4.5]dec-2-en-3-yl)methyl)-4-(4-(4-chloro-2,3-difluorophenyl)-1H-1,2,3-triazol-1-yl)-2-(hydroxymethyl)-5-methoxytetrahydro-2H-pyran-3-ol], the results for the IC50 at human Gal-3 (hGal-3) and on human Gal-1 (hGal-1) were 0.12 µM and 4.6 µM, respectively.
Taken in the same sequence, the figures for `CO[C@@H]1[C@@H](n2cc(-c3cc(F)c(F)c(F)c3)nn2)[C@@H](O)[C@@H](CO)O[C@@H]1CC1=NOC2(CCCCCC2)C1` [Example 1.38, (2R,3R,4S,5R,6R)-6-((1-oxa-2-azaspiro[4.6]undec-2-en-3-yl)methyl)-2-(hydroxymethyl)-5-methoxy-4-(4-(3,4,5-trifluorophenyl)-1H-1,2,3-triazol-1-yl)tetrahydro-2H-pyran-3-ol] were 0.16 µM and 6.4 µM.
Consider `CO[C@@H]1[C@@H](n2cc(-c3cc(F)c(F)c(F)c3)nn2)[C@@H](O)[C@@H](CO)O[C@@H]1CC1=NO[C@]2(CC[C@@H](C#N)CC2)C1` [Example 1.39, (5s,8S)-3-(((2R,3R,4S,5R,6R)-5-hydroxy-6-(hydroxymethyl)-3-methoxy-4-(4-(3,4,5-trifluorophenyl)-1H-1,2,3-triazol-1-yl)tetrahydro-2H-pyran-2-yl)methyl)-1-oxa-2-azaspiro[4.5]dec-2-ene-8-carbonitrile], for which the half-maximal inhibitory concentration (IC50) at human Gal-3 (hGal-3) was determined as 0.26 µM; on human Gal-1 (hGal-1) it was 7.1 µM.
For `CO[C@@H]1[C@@H](n2cc(-c3cc(F)c(F)c(F)c3)nn2)[C@@H](O)[C@@H](CO)O[C@@H]1CC1=NO[C@]2(CC[C@H](C#N)CC2)C1` [Example 1.40, (5r,8R)-3-(((2R,3R,4S,5R,6R)-5-hydroxy-6-(hydroxymethyl)-3-methoxy-4-(4-(3,4,5-trifluorophenyl)-1H-1,2,3-triazol-1-yl)tetrahydro-2H-pyran-2-yl)methyl)-1-oxa-2-azaspiro[4.5]dec-2-ene-8-carbonitrile], in that order: 0.089 µM and 2 µM.
As to `CO[C@@H]1[C@@H](n2cc(-c3ccc(F)c(F)c3F)nn2)[C@@H](O)[C@@H](CO)O[C@@H]1CC1=NO[C@]2(CC[C@H](NC(=O)OC(C)(C)C)CC2)C1` [Example 1.41, tert-butyl ((5r,8R)-3-(((2R,3R,4S,5R,6R)-5-hydroxy-6-(hydroxymethyl)-3-methoxy-4-(4-(2,3,4-trifluorophenyl)-1H-1,2,3-triazol-1-yl)tetrahydro-2H-pyran-2-yl)methyl)-1-oxa-2-azaspiro[4.5]dec-2-en-8-yl)carbamate], the IC50 turned out to be 0.012 µM at human Gal-3 (hGal-3) and 0.3 µM on human Gal-1 (hGal-1).

Broadly, the IC50 is the concentration that gives 50% inhibition.
